Several values for one entry are separate records, joined by “and”; a condition that tells them apart may be missing. Equal entries are not always repeated. One block for each molecule: values may come before it.
Tests used:
P-gp, BCRP, and MRP1 = details: 100 nM drug, 1 μM KO143, placental IOVs, 1 min
[1] = tested on: placental ABC transporters (placental IOVs); type: in vitro ADME, human; details: for total ATP-dependent uptake by placental IOVs: 100 nM radiolabeled drug, 1 min, pool of 60 term placentas
MRP1 = MRP1 (Homo sapiens, UniProt P33527); details: placental IOVs
Chain of MRP1 (P33527 whole entry): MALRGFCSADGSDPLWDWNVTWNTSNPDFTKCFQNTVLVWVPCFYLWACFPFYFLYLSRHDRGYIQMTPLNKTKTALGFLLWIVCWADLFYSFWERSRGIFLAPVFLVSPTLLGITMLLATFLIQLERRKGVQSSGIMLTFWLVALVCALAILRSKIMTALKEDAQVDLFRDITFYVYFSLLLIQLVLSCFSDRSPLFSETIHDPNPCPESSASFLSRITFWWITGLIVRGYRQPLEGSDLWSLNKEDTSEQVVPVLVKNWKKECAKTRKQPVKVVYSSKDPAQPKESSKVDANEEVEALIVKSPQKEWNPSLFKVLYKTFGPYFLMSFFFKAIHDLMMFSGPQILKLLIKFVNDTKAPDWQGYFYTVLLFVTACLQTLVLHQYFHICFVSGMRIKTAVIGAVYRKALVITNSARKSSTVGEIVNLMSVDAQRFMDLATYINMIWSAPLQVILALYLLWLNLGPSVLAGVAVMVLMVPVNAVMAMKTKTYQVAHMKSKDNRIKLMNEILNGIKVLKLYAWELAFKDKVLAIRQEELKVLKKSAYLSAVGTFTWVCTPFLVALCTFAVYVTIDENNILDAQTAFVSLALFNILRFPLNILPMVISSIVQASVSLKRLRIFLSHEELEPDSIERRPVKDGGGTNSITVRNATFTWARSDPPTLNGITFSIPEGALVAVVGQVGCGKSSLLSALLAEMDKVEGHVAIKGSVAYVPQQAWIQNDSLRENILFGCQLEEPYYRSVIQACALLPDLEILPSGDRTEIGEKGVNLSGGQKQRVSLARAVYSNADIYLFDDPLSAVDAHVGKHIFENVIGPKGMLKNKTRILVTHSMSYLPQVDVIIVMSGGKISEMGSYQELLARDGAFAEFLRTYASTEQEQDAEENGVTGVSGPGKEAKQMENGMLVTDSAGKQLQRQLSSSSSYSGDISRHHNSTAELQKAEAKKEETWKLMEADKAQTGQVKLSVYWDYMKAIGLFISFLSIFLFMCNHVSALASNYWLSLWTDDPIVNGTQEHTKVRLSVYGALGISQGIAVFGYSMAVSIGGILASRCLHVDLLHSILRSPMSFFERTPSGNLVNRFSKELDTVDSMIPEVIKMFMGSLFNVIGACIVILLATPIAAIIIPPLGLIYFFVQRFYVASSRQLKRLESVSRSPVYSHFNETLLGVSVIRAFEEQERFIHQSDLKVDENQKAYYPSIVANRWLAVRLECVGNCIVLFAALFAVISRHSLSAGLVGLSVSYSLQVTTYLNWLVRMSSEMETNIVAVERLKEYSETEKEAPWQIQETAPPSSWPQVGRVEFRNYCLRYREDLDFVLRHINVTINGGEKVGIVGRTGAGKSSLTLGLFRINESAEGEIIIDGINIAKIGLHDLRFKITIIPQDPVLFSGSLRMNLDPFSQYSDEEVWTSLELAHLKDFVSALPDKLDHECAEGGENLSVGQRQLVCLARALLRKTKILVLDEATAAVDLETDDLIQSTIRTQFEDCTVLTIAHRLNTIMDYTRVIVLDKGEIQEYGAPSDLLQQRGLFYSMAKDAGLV

BCRP = molecular target: T1, BCRP (Homo sapiens, UniProt Q9UNQ0); details: 100 nM drug, 25 nM KO143, placental IOVs, 1 min
T1 sequence (Q9UNQ0 1-655): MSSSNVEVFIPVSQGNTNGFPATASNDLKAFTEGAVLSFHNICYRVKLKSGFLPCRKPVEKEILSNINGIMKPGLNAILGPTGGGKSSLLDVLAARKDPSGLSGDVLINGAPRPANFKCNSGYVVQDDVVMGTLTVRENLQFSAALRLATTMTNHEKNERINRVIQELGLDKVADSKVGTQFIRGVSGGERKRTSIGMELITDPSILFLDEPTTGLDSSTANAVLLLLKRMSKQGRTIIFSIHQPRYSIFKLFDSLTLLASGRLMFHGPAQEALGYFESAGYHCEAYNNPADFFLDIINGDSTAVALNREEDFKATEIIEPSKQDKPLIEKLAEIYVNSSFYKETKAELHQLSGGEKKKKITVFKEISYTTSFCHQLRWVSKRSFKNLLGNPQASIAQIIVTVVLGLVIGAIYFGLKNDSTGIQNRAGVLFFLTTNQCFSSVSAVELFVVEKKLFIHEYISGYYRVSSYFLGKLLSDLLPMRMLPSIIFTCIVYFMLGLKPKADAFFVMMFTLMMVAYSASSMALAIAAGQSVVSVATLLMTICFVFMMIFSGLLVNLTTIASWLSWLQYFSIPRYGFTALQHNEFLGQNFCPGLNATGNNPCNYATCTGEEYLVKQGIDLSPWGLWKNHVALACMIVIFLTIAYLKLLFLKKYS

P-gp [2] = molecular target: T2, P-gp (Homo sapiens, UniProt P08183); details: placental IOVs
T2 sequence (P08183 whole entry): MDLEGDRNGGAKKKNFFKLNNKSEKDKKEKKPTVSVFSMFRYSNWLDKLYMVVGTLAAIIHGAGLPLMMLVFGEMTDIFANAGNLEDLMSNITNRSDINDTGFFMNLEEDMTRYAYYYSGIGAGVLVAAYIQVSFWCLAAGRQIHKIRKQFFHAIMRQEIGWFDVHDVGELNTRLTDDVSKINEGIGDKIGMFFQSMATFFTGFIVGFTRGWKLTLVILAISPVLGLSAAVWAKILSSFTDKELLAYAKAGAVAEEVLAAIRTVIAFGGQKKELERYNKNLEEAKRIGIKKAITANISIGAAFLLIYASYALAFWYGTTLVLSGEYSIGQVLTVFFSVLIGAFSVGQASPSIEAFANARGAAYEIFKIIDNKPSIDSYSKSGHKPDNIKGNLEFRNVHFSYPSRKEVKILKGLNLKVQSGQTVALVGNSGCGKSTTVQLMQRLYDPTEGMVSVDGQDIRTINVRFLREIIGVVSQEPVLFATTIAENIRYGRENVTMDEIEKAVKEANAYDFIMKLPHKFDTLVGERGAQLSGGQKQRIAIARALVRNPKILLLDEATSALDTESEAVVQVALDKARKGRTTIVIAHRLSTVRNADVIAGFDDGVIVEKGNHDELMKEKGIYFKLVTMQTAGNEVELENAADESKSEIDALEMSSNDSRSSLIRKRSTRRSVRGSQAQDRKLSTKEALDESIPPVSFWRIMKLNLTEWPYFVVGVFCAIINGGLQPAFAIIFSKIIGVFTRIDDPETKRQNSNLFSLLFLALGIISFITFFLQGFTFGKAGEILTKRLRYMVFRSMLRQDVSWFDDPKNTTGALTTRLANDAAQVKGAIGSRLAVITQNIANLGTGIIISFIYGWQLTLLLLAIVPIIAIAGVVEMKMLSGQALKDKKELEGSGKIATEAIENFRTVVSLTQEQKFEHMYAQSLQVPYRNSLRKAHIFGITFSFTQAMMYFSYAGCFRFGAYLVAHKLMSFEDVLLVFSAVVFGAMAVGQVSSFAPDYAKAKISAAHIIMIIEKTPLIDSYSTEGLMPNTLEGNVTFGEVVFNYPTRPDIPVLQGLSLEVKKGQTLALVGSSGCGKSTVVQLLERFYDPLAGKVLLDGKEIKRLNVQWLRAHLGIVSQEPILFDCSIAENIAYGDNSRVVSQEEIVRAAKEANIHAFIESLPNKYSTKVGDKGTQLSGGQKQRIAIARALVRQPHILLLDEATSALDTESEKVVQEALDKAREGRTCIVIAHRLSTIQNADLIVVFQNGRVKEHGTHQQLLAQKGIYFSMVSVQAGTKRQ

P-gp [3] = molecular target: T2, P-gp; test: Inhibition of [3H]-rosiglitazone uptake by placental IOVs by cold metformin; type: in vitro ADME
P-gp [4] = molecular target: T2, P-gp; details: placental brush border membrane vesicles; cited from earlier work
[5] = 100 nM, ABC transporters examined

- decrease of uptake on total inhibition of P-gp, BCRP, and MRP1 using 1 μM KO143 (P-gp, BCRP, and MRP1): 78 ± 4%
- total ATP-dependent uptake by placental IOVs [1]: 3.2 ± 0.3 pmol/mg protein*min
- apparent Kt of ATP-dependent transport by MRP1 (MRP1): 358 ± 195 nM
Structure (SMILES): COc1ccc(Cl)cc1C(=O)NCCc1ccc(S(=O)(=O)NC(=O)NC2CCCCC2)cc1 [glyburide]

- decrease of uptake on inhibition of BCRP by 25 nM KO143 (transport by BCRP) (BCRP): 25 ± 14% and 25 ± 8%
- decrease of uptake on inhibition of P-gp by verapamil (transport by P-gp) (P-gp [2]; 100 nM drug, 600 μM verapamil, 1 min): 58 ± 20% and 58 ± 10%
- apparent Kt of ATP-dependent transport by P-gp (P-gp [2]): 100 ± 85 nM
- IC50 (P-gp [3]): ~0.6 µM
- inhibition at 1 min (P-gp [3]; human, placental inside-out vesicles (IOVs), probe [3H]-rosiglitazone, 100 nM): 69 ± 6%
- decrease of uptake on total inhibition of P-gp, BCRP, and MRP1 using 1 μM KO143 (P-gp, BCRP, and MRP1): 89 ± 6%
- total ATP-dependent uptake by placental IOVs [1]: 35 pmol/mg protein*min
- fold greater total transport than glyburide [1, 5]: 10 fold
- fold greater total transport than rosiglitazone [1, 5]: 30 fold
- decrease of uptake on inhibition of MRP1 by indomethacin (transport by MRP1) (MRP1; 100 nM drug, 100 μM indomethacin, 1 min): no effect
Structure (SMILES): CN(C)C(=N)N=C(N)N [metformin]

Structure (SMILES): CC(=O)O[C@H]1C(=O)[C@@]2(C)[C@H]([C@H](OC(=O)c3ccccc3)[C@]3(O)C[C@H](OC(=O)[C@H](O)[C@@H](NC(=O)c4ccccc4)c4ccccc4)C(C)=C1C3(C)C)[C@]1(OC(C)=O)CO[C@@H]1C[C@@H]2O [paclitaxel]
- Kt of P-gp-mediated transport (P-gp [4]): 66 ± 38 nM
- Vmax of P-gp-mediated transport (P-gp [4]): 20 ± 3 pmol/mg protein*min

- total ATP-dependent uptake by placental IOVs [1]: 1.2 ± 0.2 pmol/mg protein*min
Structure (SMILES): CN(CCOc1ccc(CC2SC(=O)NC2=O)cc1)c1ccccn1 (stereo not shown) [rosiglitazone]

Reference: paper PMC2848180 (American journal of obstetrics and gynecology, 2010)
